Patent publication US9409952B2, “Peptide-compound cyclization method” (Chugai Seiyaku Kabushiki Kaisha, priority 2011, dated 2016)
Starred links: 1 amine or outer side, 2 acyl side, 3 side chain; linkers in the order of their positions; H or OH if unused. Positions of bridges follow the written chain, without caps; N, C: chain ends. Non-standard residues stand in square brackets, D forms with d. Residues, ends and D or L forms follow the SMILES beside them. *: point of attachment. NMeF = CN[C@@H](Cc1ccccc1)C(=O)O; NMeGABA = CN(CCCC(=O)[*:2])[*:1]; NMeI = CC[C@H](C)[C@H](NC)C(=O)O; NMeβAla = CN(CCC(=O)[*:2])[*:1]; NMeL = CN[C@@H](CC(C)C)C(=O)O; NMeV = CN[C@H](C(=O)O)C(C)C; NMeA = CN[C@@H](C)C(=O)O; Piperidide = C1CCN(*)CC1; dNMeA = CN[C@H](C)C(=O)O; Sar = CNCC(=O)O

Experiments:
[1] = PAMPA (parallel artificial membrane permeability assay); assay type: in vitro ADME; conditions: membrane permeation rate (Pe), 50 mM MOPSO buffer pH 6.5 with 5.0% glycocholic acid, 37° C., 18 hours; for Papp at 18 hours, 50 µM: PAMPA, read-out: iPAMPA Pe
Summary of the method: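 Artificial membrane was 10% (w/v) egg lecithin plus 0.5% (w/v) cholesterol in dodecane on a PVDF filter. A 10 mM DMSO stock was added at 0.5% (v/v) to donor buffer (50 mM MOPSO, pH 6.5, 5.0% glycocholic acid). After 18 h at 37 °C, LC/MS or LC/UV gave donor and acceptor levels for Pe.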

[2] = Metabolic stability in human hepatic microsome; assay type: in vitro ADME; conditions: microsomes, pH 7.4; human hepatic microsome, NADPH(+); read-out: CL NADPH(+)

| Compound | Papp at 18 hours, 50 µM [1] [×10⁻⁶ cm/s] | microsomal CLint at 1 uM [2] [µL/min/mg] | iPAMPA Pe [1] |
| --- | --- | --- | --- |
| CC[C@H](C)[C@H]1C(=O)N[C@@H]([C@@H](C)O)C(=O)N(C)CC(=O)N[C@H](C(=O)N2CCCCC2)CC(=O)N[C@H](C(C)C)C(=O)N[C@@H](CC(C)C)C(=O)N(C)[C@@H](CC(C)C)C(=O)N(C)[C@@H](Cc2ccccc2)C(=O)N[C@@H](C)C(=O)N(C)[C@@H](Cc2ccccc2)C(=O)N(C)[C@@H](CC(C)C)C(=O)N1C [DP-232] ([dV]L[NMeL][NMeF]A[NMeF][NMeL][NMeI]T[Sar]D-Piperidide; lactam N-11) | 18 | 77 | – |
| CC[C@H](C)[C@H]1C(=O)N(C)CC(=O)N(C)[C@@H](C(C)C)C(=O)N[C@@H]([C@@H](C)O)C(=O)N[C@H](C(=O)N2CCCCC2)CC(=O)N[C@H](C(C)C)C(=O)N(C)[C@@H](C)C(=O)N(C)[C@@H](CC(C)C)C(=O)N[C@@H](CC(C)C)C(=O)N(C)[C@@H](Cc2ccccc2)C(=O)N[C@@H](Cc2ccccc2)C(=O)N1C [DP-233] ([dV][NMeA][NMeL]L[NMeF]F[NMeI][Sar][NMeV]TD-Piperidide; lactam N-11) | 32 | 39 | – |
| CC[C@H](C)[C@H]1C(=O)N(C)[C@@H](CC(C)C)C(=O)N[C@@H]([C@@H](C)O)C(=O)N[C@H](C(=O)N2CCCCC2)CC(=O)N[C@H](C(C)C)C(=O)N(C)[C@@H](C)C(=O)N(C)[C@@H](CC(C)C)C(=O)N(C)[C@@H](Cc2ccccc2)C(=O)N[C@@H](C)C(=O)N(C)[C@@H](CC(C)C)C(=O)N(C)[C@@H](Cc2ccccc2)C(=O)N1C [DP-234] ([dV][NMeA][NMeL][NMeF]A[NMeL][NMeF][NMeI][NMeL]TD-Piperidide; lactam N-11) | 2 | 91 | – |
| CC[C@H](C)[C@H]1C(=O)N(C)[C@@H](CC(C)C)C(=O)N[C@@H](C)C(=O)N(C)[C@@H](CC(C)C)C(=O)N(C)[C@@H](Cc2ccccc2)C(=O)N[C@@H]([C@@H](C)O)C(=O)N(C)[C@@H](Cc2ccccc2)C(=O)N(C)[C@@H](CC(C)C)C(=O)N(C)[C@@H](C)C(=O)N[C@H](C(=O)N2CCCCC2)CC(=O)N[C@H](C(C)C)C(=O)N1C [DP-235] ([dV][NMeI][NMeL]A[NMeL][NMeF]T[NMeF][NMeL][NMeA]D-Piperidide; lactam N-11) | 9 | 58 | – |
| CC[C@H](C)[C@H]1C(=O)NCC(=O)N(C)[C@@H](CC(C)C)C(=O)N[C@@H]([C@@H](C)O)C(=O)N2CCC[C@H]2C(=O)N[C@@H](Cc2ccccc2)C(=O)N[C@H](C(=O)N2CCCCC2)CC(=O)N(C)[C@@H](C)C(=O)N[C@@H](Cc2ccccc2)C(=O)N(C)[C@@H](CC(C)C)C(=O)N[C@@H](CC(C)C)C(=O)N1C [DP-236] ([NMeA]F[NMeL]L[NMeI]G[NMeL]TPFD-Piperidide; lactam N-11) | – | 79 | 7.0E−05 |
| CC(C)C[C@@H]1NC(=O)[C@H](CC(C)C)N(C)C(=O)[C@H](C)NC(=O)[C@H](C(C)C)N(C)C(=O)[C@H](C)N(C)C(=O)CN(C)C(=O)[C@H]([C@@H](C)O)NC(=O)[C@H](Cc2ccccc2)NC(=O)[C@H](CC(C)C)N(C)C(=O)[C@H](C)N(C)C(=O)C[C@@H](C(=O)N2CCCCC2)NC1=O [DP-237] ([NMeA][NMeL]FT[Sar][NMeA][NMeV]A[NMeL]LD-Piperidide; lactam N-11) | 12 | 37 | – |
| CC[C@H](C)[C@@H]1NC(=O)[C@H](Cc2ccccc2)N(C)C(=O)[C@H]([C@@H](C)O)NC(=O)[C@H](C(C)C)N(C)C(=O)[C@H](CC(C)C)NC(=O)[C@H](CC(C)C)N(C)C(=O)CCN(C)C(=O)C[C@@H](C(=O)N2CCCCC2)NC(=O)[C@H](C)NC(=O)[C@H](C)N(C)C(=O)[C@H](Cc2ccccc2)NC1=O [DP-238] ([NMeβAla][NMeL]L[NMeV]T[NMeF]IF[NMeA]AD-Piperidide; lactam N-11) | 19 | 129 | – |
| CC[C@H](C)[C@H]1C(=O)N[C@@H](Cc2ccccc2)C(=O)N[C@@H]([C@@H](C)O)C(=O)N2CCC[C@H]2C(=O)N[C@@H](Cc2ccccc2)C(=O)N[C@H](C(=O)N2CCCCC2)CC(=O)N(C)CCC(=O)N(C)[C@@H](CC(C)C)C(=O)N(C)[C@@H](CC(C)C)C(=O)N[C@@H](CC(C)C)C(=O)NCC(=O)N1C [DP-239] ([NMeβAla][NMeL][NMeL]LG[NMeI]FTPFD-Piperidide; lactam N-11) | 25 | 109 | – |
| CC[C@H](C)[C@H]1C(=O)N(C)[C@@H](CC(C)C)C(=O)N[C@H](C(=O)N2CCCCC2)CC(=O)N(C)CCC(=O)N(C)[C@@H](CC(C)C)C(=O)N[C@@H]([C@@H](C)O)C(=O)N(C)[C@@H](C)C(=O)N(C)[C@@H](Cc2ccccc2)C(=O)N[C@@H](C)C(=O)N(C)[C@@H](Cc2ccccc2)C(=O)N[C@@H](CC(C)C)C(=O)N1C [DP-240] ([NMeβAla][NMeL]T[NMeA][NMeF]A[NMeF]L[NMeI][NMeL]D-Piperidide; lactam N-11) | 38 | 125 | – |
| CC[C@H](C)[C@H]1C(=O)N(C)[C@@H](Cc2ccccc2)C(=O)N[C@@H]([C@@H](C)O)C(=O)N(C)[C@@H](C)C(=O)N(C)[C@@H](C(C)C)C(=O)N(C)[C@@H](CC(C)C)C(=O)N[C@@H](C)C(=O)N[C@H](C(=O)N2CCCCC2)CC(=O)N(C)CCC(=O)N[C@@H](Cc2ccccc2)C(=O)N(C)[C@@H](CC(C)C)C(=O)N1C [DP-241] ([NMeβAla]F[NMeL][NMeI][NMeF]T[NMeA][NMeV][NMeL]AD-Piperidide; lactam N-11) | 26 | 30 | – |
| CC[C@H](C)[C@@H]1NC(=O)[C@H](C)N(C)C(=O)[C@H]([C@@H](C)O)NC(=O)[C@H](C(C)C)N(C)C(=O)[C@H](CC(C)C)NC(=O)[C@H](CC(C)C)N(C)C(=O)[C@@H](C)N(C)C(=O)C[C@@H](C(=O)N2CCCCC2)NC(=O)[C@H](Cc2ccccc2)NC(=O)[C@H](C)NC(=O)[C@H](Cc2ccccc2)N(C)C1=O [DP-242] ([dNMeA][NMeL]L[NMeV]T[NMeA]I[NMeF]AFD-Piperidide; lactam N-11) | 29 | 43 | – |
| CC(C)C[C@@H]1NC(=O)[C@H](CC(C)C)N(C)C(=O)[C@H](C)NC(=O)[C@H](C(C)C)N(C)C(=O)[C@H](C)N(C)C(=O)CN(C)C(=O)[C@H]([C@@H](C)O)NC(=O)[C@H](Cc2ccccc2)NC(=O)[C@H](CC(C)C)N(C)C(=O)[C@@H](C)N(C)C(=O)C[C@@H](C(=O)N2CCCCC2)NC1=O [DP-243] ([dNMeA][NMeL]FT[Sar][NMeA][NMeV]A[NMeL]LD-Piperidide; lactam N-11) | 8.4 | 32 | – |
| CC[C@H](C)[C@H]1C(=O)N(C)[C@@H](Cc2ccccc2)C(=O)N(C)[C@@H](CC(C)C)C(=O)N[C@H](C(=O)N2CCCCC2)CC(=O)N(C)[C@H](C)C(=O)N(C)[C@@H](CC(C)C)C(=O)N[C@@H]([C@@H](C)O)C(=O)N(C)[C@@H](C)C(=O)N[C@@H](C)C(=O)N(C)[C@@H](Cc2ccccc2)C(=O)N[C@@H](CC(C)C)C(=O)N1C [DP-244] ([dNMeA][NMeL]T[NMeA]A[NMeF]L[NMeI][NMeF][NMeL]D-Piperidide; lactam N-11) | 31 | 16 | – |
| CC[C@H](C)[C@@H]1NC(=O)[C@H](C)N(C)C(=O)[C@H]([C@@H](C)O)NC(=O)[C@H](C(C)C)N(C)C(=O)[C@H](CC(C)C)NC(=O)[C@H](CC(C)C)N(C)C(=O)CN(C)C(=O)C[C@@H](C(=O)N2CCCCC2)NC(=O)[C@H](C)NC(=O)[C@H](Cc2ccccc2)NC(=O)[C@H](Cc2ccccc2)N(C)C1=O [DP-245] ([Sar][NMeL]L[NMeV]T[NMeA]I[NMeF]FAD-Piperidide; lactam N-11) | 31 | 71 | – |
| CC[C@H](C)[C@H]1C(=O)N(C)[C@@H](CC(C)C)C(=O)N[C@H](C(=O)N2CCCCC2)CC(=O)N(C)CC(=O)N[C@@H](CC(C)C)C(=O)N[C@@H]([C@@H](C)O)C(=O)N(C)CC(=O)N(C)[C@@H](Cc2ccccc2)C(=O)N[C@@H](C)C(=O)N(C)[C@@H](Cc2ccccc2)C(=O)N(C)[C@@H](CC(C)C)C(=O)N1C [DP-246] ([Sar]LT[Sar][NMeF]A[NMeF][NMeL][NMeI][NMeL]D-Piperidide; lactam N-11) | 41 | 42 | – |
| CC[C@H](C)[C@H]1C(=O)N[C@@H](CC(C)C)C(=O)N(C)[C@@H](CC(C)C)C(=O)N[C@H](C(=O)N2CCCCC2)CC(=O)N(C)CC(=O)N(C)[C@@H](CC(C)C)C(=O)N[C@@H]([C@@H](C)O)C(=O)N(C)[C@@H](C)C(=O)N[C@@H](C)C(=O)N(C)[C@@H](Cc2ccccc2)C(=O)N(C)[C@@H](Cc2ccccc2)C(=O)N1C [DP-247] ([Sar][NMeL]T[NMeA]A[NMeF][NMeF][NMeI]L[NMeL]D-Piperidide; lactam N-11) | 28 | 48 | – |
| CC[C@H](C)[C@H]1C(=O)N(C)[C@@H](Cc2ccccc2)C(=O)N[C@@H](CC(C)C)C(=O)N[C@H](C(=O)N2CCCCC2)CC(=O)N(C)CCCC(=O)N(C)[C@@H](CC(C)C)C(=O)N[C@@H]([C@@H](C)O)C(=O)N(C)[C@@H](Cc2ccccc2)C(=O)N(C)[C@@H](CC(C)C)C(=O)N(C)[C@@H](CC(C)C)C(=O)N[C@@H](C)C(=O)N1C [DP-248] ([NMeGABA][NMeL]T[NMeF][NMeL][NMeL]A[NMeI][NMeF]LD-Piperidide; lactam N-11) | 2.6 | 36 | – |
| CC[C@H](C)[C@H]1C(=O)N[C@@H](CC(C)C)C(=O)N(C)[C@@H](CC(C)C)C(=O)N[C@H](C(=O)N2CCCCC2)CC(=O)N(C)CCCC(=O)N(C)[C@@H](CC(C)C)C(=O)N[C@@H]([C@@H](C)O)C(=O)N(C)[C@@H](C)C(=O)N[C@@H](C)C(=O)N(C)[C@@H](Cc2ccccc2)C(=O)N(C)[C@@H](Cc2ccccc2)C(=O)N1C [DP-249] ([NMeGABA][NMeL]T[NMeA]A[NMeF][NMeF][NMeI]L[NMeL]D-Piperidide; lactam N-11) | 34 | 151 | – |
